Results published in patent publication EP2193713A1, “Method for fighting animal pests without damaging pollinating insects” (Bayer CropScience AG, priority 2008, dated 2010).
Read-outs that look alike come from different tables or passages of the source.

What was measured:
Type in all cases: in vivo
Apis mellifera [1] = assay: Greenhouse test / residue test / bees: mortality after contact with treated tomato leaves; details: 50 g a.s./ha
From the text: Der Versuch wurde wie folgt durchgeführt:
Die Tomatenpflanzen wurden im Gewächshaus mit den Testverbindungen bzw. der Referenzsubstanz behandelt (Spritzappliaktion, 3 fache Wiederholung). 1, 3, 6 und 13 Tage nach Behandlung (DAA) wurden Blätter entnommen (je 5 Blattproben pro Behandlung) und in Boxen gegeben. In jede Box wurden 10 Bienen transferiert und die Boxen wurden unter kontrollierten Bedingungen aufbewahrt, wobei die Bienen mit Zuckerlösung gefüttert wurden. 24, 48 und 72 nach Transfer der Bienen wurde deren Mortalität bestimmt. Tabelle 9 (siehe auch Figur 9)

Apis mellifera [2] = details: for Zahl toter Arbeiterbienen: 10 mg a.s./pl.
From the text: (§1) Die Mortalität von Arbeiterbienen vor dem Bienenstock wird mittels einer Falle für tote Bienen (dead bee trap) bestimmt. Die Falle besteht aus Maschendraht und ist vor dem Bienenstock angebracht. Einzelne, lebende Bienen können die Maschen des Drahts passieren, der Transport toter Bienen durch die Maschen ist nicht möglich, weswegen tote Bienen sich in der Falle ansammeln. Tabelle 1 (siehe auch Figur 1)

Apis mellifera [3] = details: for Zahl toter Arbeiterbienen: 50 g a.s./ha
From the text: (§2) Der Test wurde gemäß EPPO (European Plant Protection Organisation) Leitlinie 170 wie folgt durchgeführt:
as §1

Apis mellifera [4] = assay: Tunnel test / spray application / bees: brood development (share of comb cells); details: 50 g a.s./ha
From the text: as §2
Über alle Waben eines Bienenstocks wird der jeweilige Anteil an Zellen bestimmt, der durch Pollen, Nektar, Eier, Larven oder Puppen belegt ist bzw. leer ist. […]

Apis mellifera [5] = assay: Tunnel test / spray application / bees: foraging activity; details: for Aktivität der Nahrungssuche, Zahl der Bienen / min / m^2: 50 g a.s./ha
From the text: as §2
Während einer Minute werden in einem abgegrenzten Bereich von 2 x 1 m^2 die Bienen gezählt, die auf Blüten absitzen. Tabelle 3 (siehe auch Figur 3)

Apis mellifera [6] = assay: Tunnel test / spray application / bees: acute mortality of pupae in front of the hive; details: 50 g a.s./ha
From the text: as §2
Tabelle 2 (siehe auch Figur 2)

Apis mellifera [7] = assay: Tent test / drench application / bees: foraging activity; details: for Aktivität der Nahrungssuche, Zahl der Bienen / min / 4 m^2: 10 mg a.s./pl.
From the text: Der Test wurde wie folgt durchgeführt:

[8] = result in words, 27 Tage nach Applikation

## CN1COCN(Cc2cnc(Cl)s2)/C1=N\[N+](=O)[O-] [Thiamethoxam, reference compound]
Apis mellifera [1]; leaves taken 1 Tag nach Behandlung, 24 h contact
  Mortalität: 100%
Apis mellifera [1]; leaves taken 1 Tag nach Behandlung, 48 h contact
  Mortalität: 100%
Apis mellifera [1]; leaves taken 1 Tag nach Behandlung, 72 h contact
  Mortalität: 100%
Apis mellifera [1]; leaves taken 3 Tage nach Behandlung, 24 h contact
  Mortalität: 100%
Apis mellifera [1]; leaves taken 3 Tage nach Behandlung, 48 h contact
  Mortalität: 100%
Apis mellifera [1]; leaves taken 3 Tage nach Behandlung, 72 h contact
  Mortalität: 100%
Apis mellifera [1]; leaves taken 6 Tage nach Behandlung, 24 h contact
  Mortalität: 100%
Apis mellifera [1]; leaves taken 6 Tage nach Behandlung, 48 h contact
  Mortalität: 100%
Apis mellifera [1]; leaves taken 6 Tage nach Behandlung, 72 h contact
  Mortalität: 100%
Apis mellifera [1]; leaves taken 13 Tage nach Behandlung, 24 h contact
  Mortalität: 93,3%
Apis mellifera [1]; leaves taken 13 Tage nach Behandlung, 48 h contact
  Mortalität: 93%
Apis mellifera [1]; leaves taken 13 Tage nach Behandlung, 72 h contact
  Mortalität: 93,3%
Apis mellifera [2]; 6 DAA a (9:30 Uhr)
  Zahl toter Arbeiterbienen: 143
Apis mellifera [2]; 6 DAA b (14:30 Uhr)
  Zahl toter Arbeiterbienen: 35
Apis mellifera [2]; 7 DAA
  Zahl toter Arbeiterbienen: 394
Apis mellifera [2]; 8 DAA
  Zahl toter Arbeiterbienen: 143
Apis mellifera [2]; 9 DAA
  Zahl toter Arbeiterbienen: 78
Apis mellifera [2]; 10 DAA
  Zahl toter Arbeiterbienen: 295
Apis mellifera [2]; 11 DAA
  Zahl toter Arbeiterbienen: 110
Apis mellifera [2]; 14 DAA
  Zahl toter Arbeiterbienen: 40
Apis mellifera [2]; 16 DAA
  Zahl toter Arbeiterbienen: 74
Apis mellifera [2]; 18 DAA
  Zahl toter Arbeiterbienen: 29
Apis mellifera [2]; result in words, tent test, drench, I-5 20 mg a.s. / Pflanze, Thiamethoxam 10 mg a.s. / Pflanze
  Mortalität von Arbeiterbienen vor dem Bienenstock: ausgeprägte Mortalität
Apis mellifera [3]; 0 DAA b (15:15 Uhr)
  Zahl toter Arbeiterbienen: 420
Apis mellifera [3]; 0 DAA c (17:15 Uhr)
  Zahl toter Arbeiterbienen: 45,3
Apis mellifera [3]; 1 DAA
  Zahl toter Arbeiterbienen: 152,8
Apis mellifera [3]; 2 DAA
  Zahl toter Arbeiterbienen: 229,4
Apis mellifera [3]; 3 DAA
  Zahl toter Arbeiterbienen: 50,2
Apis mellifera [3]; 4 DAA
  Zahl toter Arbeiterbienen: 891,6
Apis mellifera [3]; 5 DAA
  Zahl toter Arbeiterbienen: 2,4
Apis mellifera [3]; 6 DAA
  Zahl toter Arbeiterbienen: 9
Apis mellifera [3]; 11 DAA
  Zahl toter Arbeiterbienen: 16,5
Apis mellifera [3]; -3 DAA (before application)
  Zahl toter Arbeiterbienen: 1,6
Apis mellifera [3]; result in words, tunnel test, spray, I-5 75 und 150 g a.s./ha, Thiamethoxam 50 g a.s./ha
  Mortalität von Arbeiterbienen vor dem Bienenstock: ausgeprägte Mortalität
Apis mellifera [4]; 1 Tag vor Applikation
  Anteil an Zellen: Eier: 17,5%
  Anteil an Zellen: Larven: 9%
  Anteil an Zellen: Leer: 30%
  Anteil an Zellen: Nektar: 12%
  Anteil an Zellen: Pollen: 2,4%
  Anteil an Zellen: Puppen: 29,1%
Apis mellifera [4]; 6 Tage nach Applikation
  Anteil an Zellen: Eier: 11,4%
  Anteil an Zellen: Larven: 6,3%
  Anteil an Zellen: Leer: 30,9%
  Anteil an Zellen: Nektar: 19,4%
  Anteil an Zellen: Pollen: 3,3%
  Anteil an Zellen: Puppen: 28,7%
Apis mellifera [4]; 14 Tage nach Applikation
  Anteil an Zellen: Eier: 19,4%
  Anteil an Zellen: Larven: 7,4%
  Anteil an Zellen: Leer: 51,8%
  Anteil an Zellen: Nektar: 9,2%
  Anteil an Zellen: Pollen: 1,5%
  Anteil an Zellen: Puppen: 10,7%
Apis mellifera [4]; 27 Tage nach Applikation
  Anteil an Zellen: Eier: 6,1%
  Anteil an Zellen: Larven: 2%
  Anteil an Zellen: Leer: 52%
  Anteil an Zellen: Nektar: 15,5%
  Anteil an Zellen: Pollen: 5,1%
  Anteil an Zellen: Puppen: 19,2%
Apis mellifera [4]; [8]
  Zahl der Larven: starke Abnahme
  leere Wabenzellen: Verdoppelung
Apis mellifera [5]; 0 DAA a (09:30 Uhr)
  Aktivität der Nahrungssuche, Zahl der Bienen / min / m^2: 26,8 Bienen / min / m^2
Apis mellifera [5]; 0 DAA c (14:15 Uhr)
  Aktivität der Nahrungssuche, Zahl der Bienen / min / m^2: 0,9 Bienen / min / m^2
Apis mellifera [5]; 0 DAA e (17:15 Uhr)
  Aktivität der Nahrungssuche, Zahl der Bienen / min / m^2: 0,4 Bienen / min / m^2
Apis mellifera [5]; 1 DAA b (15:30 Uhr)
  Aktivität der Nahrungssuche, Zahl der Bienen / min / m^2: 0 Bienen / min / m^2
Apis mellifera [5]; 2 DAA
  Aktivität der Nahrungssuche, Zahl der Bienen / min / m^2: 1,5 Bienen / min / m^2
Apis mellifera [5]; 3 DAA
  Aktivität der Nahrungssuche, Zahl der Bienen / min / m^2: 1,6 Bienen / min / m^2
Apis mellifera [5]; 6 DAA
  Aktivität der Nahrungssuche, Zahl der Bienen / min / m^2: 5,4 Bienen / min / m^2
Apis mellifera [5]; -1 DAA (before application)
  Aktivität der Nahrungssuche, Zahl der Bienen / min / m^2: 26,1 Bienen / min / m^2
Apis mellifera [5]; -2 DAA (before application)
  Aktivität der Nahrungssuche, Zahl der Bienen / min / m^2: 35,2 Bienen / min / m^2
Apis mellifera [5]; -3 DAA (before application)
  Aktivität der Nahrungssuche, Zahl der Bienen / min / m^2: 24,5 Bienen / min / m^2
Apis mellifera [5]; result in words, tunnel test, spray, I-5 75 und 150 g a.s./ha, Thiamethoxam 50 g a.s./ha directly after application
  Aktivität der Nahrungssuche: fast vollständige Einstellung der Aktivität der Nahrungssuche
Apis mellifera [6]; 0 DAA c (17:15 Uhr)
  Zahl toter Puppen: 0
Apis mellifera [6]; 1 DAA
  Zahl toter Puppen: 0
Apis mellifera [6]; 2 DAA
  Zahl toter Puppen: 0,1
Apis mellifera [6]; 5 DAA
  Zahl toter Puppen: 0,5
Apis mellifera [6]; 6 DAA
  Zahl toter Puppen: 0
Apis mellifera [6]; 11 DAA
  Zahl toter Puppen: 0
Apis mellifera [6]; 14 DAA
  Zahl toter Puppen: 0,4
Apis mellifera [6]; 18 DAA
  Zahl toter Puppen: 0
Apis mellifera [6]; 21 DAA
  Zahl toter Puppen: 0
Apis mellifera [6]; 25 DAA
  Zahl toter Puppen: 0,2
Apis mellifera [6]; -3 DAA (before application)
  Zahl toter Puppen: 0
Apis mellifera [7]; 5 DAA
  Aktivität der Nahrungssuche, Zahl der Bienen / min / 4 m^2: 28 Bienen / min / 4 m^2
Apis mellifera [7]; 6 DAA b (14:30 Uhr)
  Aktivität der Nahrungssuche, Zahl der Bienen / min / 4 m^2: 70 Bienen / min / 4 m^2
Apis mellifera [7]; 7 DAA
  Aktivität der Nahrungssuche, Zahl der Bienen / min / 4 m^2: 23 Bienen / min / 4 m^2
Apis mellifera [7]; 8 DAA
  Aktivität der Nahrungssuche, Zahl der Bienen / min / 4 m^2: 25 Bienen / min / 4 m^2
Apis mellifera [7]; 9 DAA
  Aktivität der Nahrungssuche, Zahl der Bienen / min / 4 m^2: 19 Bienen / min / 4 m^2
Apis mellifera [7]; 11 DAA
  Aktivität der Nahrungssuche, Zahl der Bienen / min / 4 m^2: 16 Bienen / min / 4 m^2
Apis mellifera [7]; 13 DAA
  Aktivität der Nahrungssuche, Zahl der Bienen / min / 4 m^2: 14 Bienen / min / 4 m^2
Apis mellifera [7]; 15 DAA
  Aktivität der Nahrungssuche, Zahl der Bienen / min / 4 m^2: 8 Bienen / min / 4 m^2
Apis mellifera [7]; 16 DAA
  Aktivität der Nahrungssuche, Zahl der Bienen / min / 4 m^2: 15 Bienen / min / 4 m^2
Apis mellifera [7]; 17 DAA
  Aktivität der Nahrungssuche, Zahl der Bienen / min / 4 m^2: 13 Bienen / min / 4 m^2
Apis mellifera [7]; 18 DAA
  Aktivität der Nahrungssuche, Zahl der Bienen / min / 4 m^2: 6 Bienen / min / 4 m^2
Apis mellifera [7]; result in words, tent test, drench, I-5 20 mg a.s. / Pflanze, Thiamethoxam 10 mg a.s. / Pflanze (13 Tage nach Applikation)
  Aktivität der Nahrungssuche: fast vollständige Einstellung der Aktivität der Nahrungssuche
